The record followed here is US20260053932A1, “COMPOUNDS AND METHODS FOR THE TARGETED DEGRADATION OF ANDROGEN RECEPTOR AND ASSOCIATED METHODS OF USE” (Arvinas Operations, Inc., priority 2020, published 2026).

This experiment relates to androgen receptor (AR) in LNCaP and/or VCaP cells. Kind of experiment: Androgen Receptor ELISA assay (AR degradation). It is filed as cell-based. To be noted: degradation of AR ELISA in LNCaP and/or VCaP cells; Table 2C; read-out: DC50 Code*. The method in brief: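 VCaP cells grown ≥3 days, then treated 5 h with compound in media containing 1 nM R1881 (10× stock). Cells lysed and AR quantified by sandwich ELISA (mouse AR detection Ab, HRP anti-mouse, TMB). DC50 and Dmax derived from AR degradation.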
(ELISA stands for enzyme-linked immunosorbent assay.)

Some results are limits rather than exact numbers.

A word on the DC50: it is the concentration giving 50% degradation. Consider `COc1c(O[C@H]2C[C@H](N(CC3CCN(c4cnc(C(=O)N[C@H]5C(C)(C)[C@H](Oc6ccc(C#N)c(Cl)c6)C5(C)C)cn4)CC3)C(C)C)C2)ccc2c1CN(C1CCC(=O)NC1=O)C2=O` (stereo partly shown) [Compound 227, N-((1r,3r)-3-(3-chloro-4-cyanophenoxy)-2,2,4,4-tetramethylcyclobutyl)-5-(4-((((1r,3r)-3-((2-(2,6-dioxopiperidin-3-yl)-4-methoxy-1-oxoisoindolin-5-yl)oxy)cyclobutyl)(isopropyl)amino)methyl)piperidin-1-yl)pyrazine-2-carboxamide], for which the 50% degradation concentration (DC50) was less than 1 nM.

On to `COc1cc(O[C@H]2C[C@H](N(CC3CCN(c4ncc(C(=O)N[C@H]5C(C)(C)[C@H](Oc6cc(C)c(C#N)c(C)c6)C5(C)C)cn4)CC3)C(C)C)C2)cc2c1C(=O)N(C1CCC(=O)NC1=O)C2=O` (stereo partly shown) [compound 79, N-((1r,3r)-3-(4-cyano-3,5-dimethylphenoxy)-2,2,4,4-tetramethylcyclobutyl)-2-(4-((((1r,3r)-3-((2-(2,6-dioxopiperidin-3-yl)-7-methoxy-1,3-dioxoisoindolin-5-yl)oxy)cyclobutyl) (isopropyl)amino)methyl)piperidin-1-yl)pyrimidine-5-carboxamide], for which the DC50 is less than 1 nM.

As for `CC(C)N(CC1CCN(c2ncc(C(=O)N[C@H]3C(C)(C)[C@H](Oc4ccc(C#N)c(Cl)c4)C3(C)C)cn2)CC1)[C@H]1C[C@H](Oc2ccc3c(c2)CN(C2CCC(=O)NC2=O)C3=O)C1` (stereo partly shown) [compound 80, N-((1r,3r)-3-(3-chloro-4-cyanophenoxy)-2,2,4,4-tetramethylcyclobutyl)-2-(4-((((1r,3r)-3-((2-(2,6-dioxopiperidin-3-yl)-1-oxoisoindolin-5-yl)oxy)cyclobutyl) (isopropyl)amino)methyl)piperidin-1-yl)pyrimidine-5-carboxamide], the DC50 was less than 1 nM.

`COc1cc(O[C@H]2C[C@H](N(CC3CCN(c4ncc(C(=O)N[C@H]5C(C)(C)[C@H](Oc6cc(C)c(C#N)c(C)c6)C5(C)C)cn4)CC3)C(C)=O)C2)cc2c1C(=O)N(C1CCC(=O)NC1=O)C2=O` (stereo partly shown) [compound 81, N-((1r,3r)-3-(4-cyano-3,5-dimethylphenoxy)-2,2,4,4-tetramethylcyclobutyl)-2-(4-((N-((1r,3r)-3-((2-(2,6-dioxopiperidin-3-yl)-7-methoxy-1,3-dioxoisoindolin-5-yl)oxy)cyclobutyl)acetamido)methyl)piperidin-1-yl)pyrimidine-5-carboxamide]: the DC50 is less than 1 nM.

Turning to `Cc1cc(O[C@H]2C(C)(C)[C@H](NC(=O)c3cnc(N4CC(CN[C@H]5C[C@H](Oc6ccc7c(c6)C(=O)N(C6CCC(=O)NC6=O)C7=O)C5)C4)nc3)C2(C)C)cc(C)c1C#N` (stereo partly shown) [compound 82, N-((1r,3r)-3-(4-cyano-3,5-dimethylphenoxy)-2,2,4,4-tetramethylcyclobutyl)-2-(3-((((1r,3r)-3-((2-(2,6-dioxopiperidin-3-yl)-1,3-dioxoisoindolin-5-yl)oxy)cyclobutyl)amino)methyl)azetidin-1-yl)pyrimidine-5-carboxamide], the DC50 was less than 1 nM.

Regarding `CCN(CC1CCN(c2ncc(C(=O)N[C@H]3C(C)(C)[C@H](Oc4cc(C)c(C#N)c(C)c4)C3(C)C)cn2)CC1)[C@H]1C[C@H](Oc2ccc3c(c2)C(=O)N(C2CCC(=O)NC2=O)C3=O)C1` (stereo partly shown) [compound 83, N-((1r,3r)-3-(4-cyano-3,5-dimethylphenoxy)-2,2,4,4-tetramethylcyclobutyl)-2-(4-((((1r,3r)-3-((2-(2,6-dioxopiperidin-3-yl)-1,3-dioxoisoindolin-5-yl)oxy)cyclobutyl)(ethyl)amino)methyl)piperidin-1-yl)pyrimidine-5-carboxamide], the DC50 is less than 1 nM.

On to `CC(C)N(CC1CCN(c2ncc(C(=O)N[C@H]3C(C)(C)[C@H](Oc4ccc(C#N)c(Cl)c4)C3(C)C)cn2)CC1)[C@H]1CC[C@H](Oc2ccc3c(c2)C(=O)N(C2CCC(=O)NC2=O)C3=O)CC1` (stereo partly shown) [compound 84, N-((1r,3r)-3-(3-chloro-4-cyanophenoxy)-2,2,4,4-tetramethylcyclobutyl)-2-(4-((((1r,4r)-4-((2-(2,6-dioxopiperidin-3-yl)-1,3-dioxoisoindolin-5-yl)oxy)cyclohexyl) (isopropyl)amino)methyl)piperidin-1-yl)pyrimidine-5-carboxamide], for which the DC50 is less than 1 nM.

In the case of `Cc1cc(O[C@H]2C(C)(C)[C@H](NC(=O)c3cnc(N4CCC(CCN5CC(Oc6ccc7c(c6)C(=O)N(C6CCC(=O)NC6=O)C7=O)C5)CC4)nc3)C2(C)C)cc(C)c1C#N` (stereo partly shown) [compound 85, N-((1r,3r)-3-(4-cyano-3,5-dimethylphenoxy)-2,2,4,4-tetramethylcyclobutyl)-2-(4-(2-(3-((2-(2,6-dioxopiperidin-3-yl)-1,3-dioxoisoindolin-5-yl)oxy)azetidin-1-yl)ethyl)piperidin-1-yl)pyrimidine-5-carboxamide], the DC50 was less than 1 nM.

On to `Cc1cc(O[C@H]2C(C)(C)[C@H](NC(=O)c3cnc(N4CCC(CN(C)[C@H]5C[C@H](Oc6ccc7c(c6)C(=O)N(C6CCC(=O)NC6=O)C7=O)C5)CC4)nc3)C2(C)C)cc(C)c1C#N` (stereo partly shown) [compound 86, N-((1r,3r)-3-(4-cyano-3,5-dimethylphenoxy)-2,2,4,4-tetramethylcyclobutyl)-2-(4-((((1r,3r)-3-((2-(2,6-dioxopiperidin-3-yl)-1,3-dioxoisoindolin-5-yl)oxy)cyclobutyl) (methyl)amino)methyl)piperidin-1-yl)pyrimidine-5-carboxamide], for which the DC50 is less than 1 nM.

Consider `CC(C)N(CC1CC2(C1)CN(c1ncc(C(=O)N[C@H]3C(C)(C)[C@H](Oc4ccc(C#N)c(Cl)c4)C3(C)C)cn1)C2)[C@H]1C[C@H](Oc2ccc3c(c2)C(=O)N(C2CCC(=O)NC2=O)C3=O)C1` (stereo partly shown) [compound 87, N-((1r,3r)-3-(3-chloro-4-cyanophenoxy)-2,2,4,4-tetramethylcyclobutyl)-2-(6-((((1r,3r)-3-((2-(2,6-dioxopiperidin-3-yl)-1,3-dioxoisoindolin-5-yl)oxy)cyclobutyl) (isopropyl)amino)methyl)-2-azaspiro[3.3]heptan-2-yl)pyrimidine-5-carboxamide], for which the DC50 is less than 1 nM.

With `Cc1cc(O[C@H]2C(C)(C)[C@H](NC(=O)c3cnc(N4CCC(CN(C(C)C)[C@H]5C[C@H](Oc6cccc7c6C(=O)N(C6CCC(=O)NC6=O)C7=O)C5)CC4)nc3)C2(C)C)cc(C)c1C#N` (stereo partly shown) [compound 88, N-((1r,3r)-3-(4-cyano-3,5-dimethylphenoxy)-2,2,4,4-tetramethylcyclobutyl)-2-(4-((((1r,3r)-3-((2-(2,6-dioxopiperidin-3-yl)-1,3-dioxoisoindolin-4-yl)oxy)cyclobutyl) (isopropyl)amino)methyl)piperidin-1-yl)pyrimidine-5-carboxamide], the DC50 was less than 1 nM.

As to `COCCOCCN(CC1CCN(c2ncc(C(=O)N[C@H]3C(C)(C)[C@H](Oc4cc(C)c(C#N)c(C)c4)C3(C)C)cn2)CC1)[C@H]1C[C@H](Oc2ccc3c(c2)C(=O)N(C2CCC(=O)NC2=O)C3=O)C1` (stereo partly shown) [compound 89, N-((1r,3r)-3-(4-cyano-3,5-dimethylphenoxy)-2,2,4,4-tetramethylcyclobutyl)-2-(4-((((1r,3r)-3-((2-(2,6-dioxopiperidin-3-yl)-1,3-dioxoisoindolin-5-yl)oxy)cyclobutyl)(2-(2-methoxyethoxy)ethyl)amino)methyl)piperidin-1-yl)pyrimidine-5-carboxamide], the DC50 was less than 1 nM.

Take `Cc1cc(O[C@H]2C(C)(C)[C@H](NC(=O)c3cnc(N4CCC(CN(CCN5CCOCC5)[C@H]5C[C@H](Oc6ccc7c(c6)C(=O)N(C6CCC(=O)NC6=O)C7=O)C5)CC4)nc3)C2(C)C)cc(C)c1C#N` (stereo partly shown) [compound 90, N-((1r,3r)-3-(4-cyano-3,5-dimethylphenoxy)-2,2,4,4-tetramethylcyclobutyl)-2-(4-((((1r,3r)-3-((2-(2,6-dioxopiperidin-3-yl)-1,3-dioxoisoindolin-5-yl)oxy)cyclobutyl)(2-morpholinoethyl)amino)methyl)piperidin-1-yl)pyrimidine-5-carboxamide]: the DC50 is less than 1 nM.

As for `COCCN(CC1CCN(c2ncc(C(=O)N[C@H]3C(C)(C)[C@H](Oc4cc(C)c(C#N)c(C)c4)C3(C)C)cn2)CC1)[C@H]1C[C@H](Oc2ccc3c(c2)C(=O)N(C2CCC(=O)NC2=O)C3=O)C1` (stereo partly shown) [compound 91, N-((1r,3r)-3-(4-cyano-3,5-dimethylphenoxy)-2,2,4,4-tetramethylcyclobutyl)-2-(4-((((1r,3r)-3-((2-(2,6-dioxopiperidin-3-yl)-1,3-dioxoisoindolin-5-yl)oxy)cyclobutyl)(2-methoxyethyl)amino)methyl)piperidin-1-yl)pyrimidine-5-carboxamide], the 50% degradation concentration (DC50) was less than 1 nM.

Consider `CC(C)N(C[C@H]1C2CN(c3ncc(C(=O)N[C@H]4C(C)(C)[C@H](Oc5ccc(C#N)c(Cl)c5)C4(C)C)cn3)C[C@H]21)[C@H]1C[C@H](Oc2ccc3c(c2)C(=O)N(C2CCC(=O)NC2=O)C3=O)C1` (stereo partly drawn) [compound 92, N-((1r,3S)-3-(3-chloro-4-cyanophenoxy)-2,2,4,4-tetramethylcyclobutyl)-2-((1S,5S)-6-((((1r,3S)-3-((2-(2,6-dioxopiperidin-3-yl)-1,3-dioxoisoindolin-5-yl)oxy)cyclobutyl) (isopropyl)amino)methyl)-3-azabicyclo[3.1.0]hexan-3-yl)pyrimidine-5-carboxamide], for which the DC50 is less than 1 nM.

In the case of `COc1cc(O[C@H]2C(C)(C)[C@H](NC(=O)c3cnc(N4CCC(CN5CC(Oc6ccc7c(c6)C(=O)N(C6CCC(=O)NC6=O)C7=O)C5)CC4)cn3)C2(C)C)ccc1C#N` (stereo partly shown) [compound 93, N-((1r,3r)-3-(4-cyano-3-methoxyphenoxy)-2,2,4,4-tetramethylcyclobutyl)-5-(4-((3-((2-(2,6-dioxopiperidin-3-yl)-1,3-dioxoisoindolin-5-yl)oxy)azetidin-1-yl)methyl)piperidin-1-yl)pyrazine-2-carboxamide], the DC50 was less than 1 nM.
